According to the supplement of paper PMC10307832:

Key:
Assay in all cases: relative viability (nuclei count vs DMSO), 5 days (fraction); higher = more cells survive
[1] = tested on: BEN
Outline: (§1)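 Each reported value is a median over duplicate plates. It expresses relative viability: treated-well nuclei count divided by vehicle-well nuclei count. Lung cancer cell lines in 1536-well plates were dosed by pin tool a day after seeding, alone with one drug or with a fixed anchor-drug dose plus five library-drug doses (not always all listed) in √10 steps, and nuclei were counted after 5 days.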

[2] = tested on: CAL-12T
Outline: as §1

[3] = tested on: COR-L 105
Outline: as §1

[4] = tested on: COR-L23
Outline: as §1

[5] = tested on: HARA
Outline: as §1

[6] = tested on: HCC-15
Outline: as §1

[7] = tested on: HCC-366
Outline: as §1

[8] = tested on: HCC-44
Outline: as §1

[9] = tested on: HCC-827
Outline: as §1

[10] = tested on: HOP-62
Outline: as §1

[11] = tested on: LC-2-ad
Outline: as §1

[12] = tested on: LCLC-97TM1
Outline: as §1

[13] = tested on: LU99A
Outline: as §1

[14] = tested on: LXF-289
Outline: as §1

[15] = tested on: NCI-H1993
Outline: as §1

[16] = tested on: NCI-H2009
Outline: as §1

[17] = tested on: NCI-H2087
Outline: as §1

[18] = tested on: NCI-H2126
Outline: as §1

[19] = tested on: NCI-H2170
Outline: as §1

[20] = tested on: NCI-H727
Outline: as §1

[21] = tested on: PC-14
Outline: as §1

[22] = tested on: PC-3 [JPC-3]
Outline: as §1

[23] = tested on: SK-MES-1
Outline: as §1

## O=c1[nH]c2ccccc2n1C1CCN(CCCC(c2ccc(F)cc2)c2ccc(F)cc2)CC1 [Pimozide] + O=C(CCCCCCC(=O)Nc1ccccc1)NO [Vorinostat] (partner 1 µM)
[1]; first compound 0.08 µM
  relative viability: 0.558
[1]; first compound 0.253 µM
  relative viability: 0.579
[1]; first compound 0.8 µM
  relative viability: 0.607
[1]; first compound 2.53 µM
  relative viability: 0.601
[1]; first compound 8 µM
  relative viability: 0.603
[2]; first compound 0.08 µM
  relative viability: 0.732
[2]; first compound 0.253 µM
  relative viability: 0.896
[2]; first compound 0.8 µM
  relative viability: 0.7
[2]; first compound 2.53 µM
  relative viability: 0.665
[2]; first compound 8 µM
  relative viability: 0.664
[3]; first compound 0.08 µM
  relative viability: 0.702
[3]; first compound 0.253 µM
  relative viability: 0.767
[3]; first compound 0.8 µM
  relative viability: 0.821
[3]; first compound 2.53 µM
  relative viability: 0.833
[3]; first compound 8 µM
  relative viability: 0.751
[4]; first compound 0.08 µM
  relative viability: 0.459
[4]; first compound 0.253 µM
  relative viability: 0.414
[4]; first compound 0.8 µM
  relative viability: 0.343
[4]; first compound 2.53 µM
  relative viability: 0.432
[4]; first compound 8 µM
  relative viability: 0.495
[5]; first compound 0.08 µM
  relative viability: 0.433
[5]; first compound 0.253 µM
  relative viability: 0.477
[5]; first compound 0.8 µM
  relative viability: 0.519
[5]; first compound 2.53 µM
  relative viability: 0.484
[5]; first compound 8 µM
  relative viability: 0.399
[6]; first compound 0.08 µM
  relative viability: 0.828
[6]; first compound 0.253 µM
  relative viability: 0.746
[6]; first compound 0.8 µM
  relative viability: 0.83
[6]; first compound 2.53 µM
  relative viability: 0.788
[6]; first compound 8 µM
  relative viability: 0.703
[7]; first compound 0.08 µM
  relative viability: 0.457
[7]; first compound 0.253 µM
  relative viability: 0.334
[7]; first compound 0.8 µM
  relative viability: 0.142
[7]; first compound 2.53 µM
  relative viability: 0.29
[7]; first compound 8 µM
  relative viability: 0.309
[8]; first compound 0.08 µM
  relative viability: 1.12
[8]; first compound 0.253 µM
  relative viability: 1.12
[8]; first compound 0.8 µM
  relative viability: 0.923
[8]; first compound 2.53 µM
  relative viability: 1.12
[8]; first compound 8 µM
  relative viability: 0.975
[9]; first compound 0.253 µM
  relative viability: 0.791
[9]; first compound 0.8 µM
  relative viability: 0.738
[9]; first compound 2.53 µM
  relative viability: 0.785
[9]; first compound 8 µM
  relative viability: 0.843
[10]; first compound 0.08 µM
  relative viability: 0.704
[10]; first compound 0.253 µM
  relative viability: 0.642
[10]; first compound 2.53 µM
  relative viability: 0.494
[10]; first compound 8 µM
  relative viability: 0.416
[11]; first compound 0.08 µM
  relative viability: 0.731
[11]; first compound 0.253 µM
  relative viability: 0.661
[11]; first compound 0.8 µM
  relative viability: 0.499
[11]; first compound 2.53 µM
  relative viability: 0.653
[11]; first compound 8 µM
  relative viability: 0.655
[12]; first compound 0.08 µM
  relative viability: 0.753
[12]; first compound 0.253 µM
  relative viability: 0.738
[12]; first compound 0.8 µM
  relative viability: 0.455
[12]; first compound 2.53 µM
  relative viability: 0.526
[12]; first compound 8 µM
  relative viability: 0.584
[13]; first compound 0.08 µM
  relative viability: 0.595
[13]; first compound 0.8 µM
  relative viability: 0.418
[13]; first compound 2.53 µM
  relative viability: 0.5
[13]; first compound 8 µM
  relative viability: 0.537
[14]; first compound 0.08 µM
  relative viability: 0.796
[14]; first compound 0.253 µM
  relative viability: 0.748
[14]; first compound 0.8 µM
  relative viability: 0.718
[14]; first compound 2.53 µM
  relative viability: 0.88
[14]; first compound 8 µM
  relative viability: 0.755
[15]; first compound 0.08 µM
  relative viability: 0.502
[15]; first compound 0.253 µM
  relative viability: 0.966
[15]; first compound 0.8 µM
  relative viability: 0.68
[15]; first compound 2.53 µM
  relative viability: 0.857
[15]; first compound 8 µM
  relative viability: 0.533
[16]; first compound 0.08 µM
  relative viability: 0.639
[16]; first compound 0.253 µM
  relative viability: 0.764
[16]; first compound 0.8 µM
  relative viability: 0.651
[16]; first compound 2.53 µM
  relative viability: 0.698
[16]; first compound 8 µM
  relative viability: 0.694
[17]; first compound 0.08 µM
  relative viability: 0.802
[17]; first compound 0.253 µM
  relative viability: 0.597
[17]; first compound 2.53 µM
  relative viability: 0.615
[17]; first compound 8 µM
  relative viability: 0.774
[18]; first compound 0.08 µM
  relative viability: 0.704
[18]; first compound 0.253 µM
  relative viability: 0.818
[18]; first compound 0.8 µM
  relative viability: 0.782
[18]; first compound 2.53 µM
  relative viability: 0.785
[18]; first compound 8 µM
  relative viability: 0.868
[19]; first compound 0.08 µM
  relative viability: 0.717
[19]; first compound 0.253 µM
  relative viability: 0.848
[19]; first compound 0.8 µM
  relative viability: 0.808
[19]; first compound 2.53 µM
  relative viability: 0.793
[19]; first compound 8 µM
  relative viability: 0.771
[20]; first compound 0.08 µM
  relative viability: 1.2
[20]; first compound 0.253 µM
  relative viability: 1.13
[20]; first compound 0.8 µM
  relative viability: 1.11
[20]; first compound 2.53 µM
  relative viability: 1.15
[20]; first compound 8 µM
  relative viability: 1.17
[21]; first compound 0.253 µM
  relative viability: 0.711
[21]; first compound 0.8 µM
  relative viability: 0.684
[21]; first compound 2.53 µM
  relative viability: 0.713
[21]; first compound 8 µM
  relative viability: 0.701
[22]; first compound 0.253 µM
  relative viability: 0.763
[22]; first compound 0.8 µM
  relative viability: 0.716
[22]; first compound 2.53 µM
  relative viability: 0.882
[22]; first compound 8 µM
  relative viability: 0.726
[23]; first compound 0.08 µM
  relative viability: 1.13
[23]; first compound 0.253 µM
  relative viability: 1.02
[23]; first compound 0.8 µM
  relative viability: 0.991
[23]; first compound 2.53 µM
  relative viability: 1.06
[23]; first compound 8 µM
  relative viability: 0.996
